Measurements: patent EP4685149A1, “NOVEL COMPOUND AS ENDOTHELIAL TO MESENCHYMAL TRANSITION (ENDMT) INHIBITOR, AND PHARMACEUTICAL COMPOSITION COMPRISING SAME” (Korea Institute of Radiological & Medical Sciences, priority 2023, dated 2024)
Like-named read-outs stand apart in the source and are kept apart here.

System: human vascular endothelial cell lines
Assay: Inhibition of radiation-induced endothelial cell transition (EndMT), phalloidin immunofluorescence staining
Assay type: cell-based
Settings: Homo sapiens, Endothelial cell, light or radiation study, 10 uM test substance 1 hour before 10 Gy irradiation, 72 hours after irradiation, relative ratio with IR group (10 Gy alone) as 100%
Method: Test substances (Examples 1 to 45) were treated with a 10 mM DMSO solution at a ratio of 1 µL per 1 mL of cell culture medium to a final concentration of 10 uM, and the test substances were treated 1 hour before irradiation on human vascular endothelial cell lines (Promocell, Germany), and then, it was irradiated at an intensity of 10 Gy. 72 hours after irradiation, the human vascular endothelial cell lines were fixed with 10% formalin, and the experiment was conducted according to the manufacturer's method using phalloidin (Invitrogen, USA) to confirm the cytoskeleton filaments that increase during fibrosis. Phalloidin is a protein that binds to the actin of cytoskeleton filaments, and phalloidin conjugated with FITC fluorescent substance made the cytoskeleton filaments appear green when observed under a microscope.
After treatment with the test substance, the area, length and density of phalloidin were measured by using a confocal microscope, and the relative ratio was expressed with the irradiated group (IR group) that was irradiated with 10 Gy alone as 100% (Table 1).

Row | SMILES | activity at 10 µM (read-out: Palloidin Area) [%] | activity at 10 µM (read-out: Palloidin Intensity) [%] | activity at 10 µM (read-out: Palloidin Length) [%]
1 | O[C@@H]1[C@H](O)CS[C@H]1n1cnc2c(N[C@@H]3CCc4c(Cl)cccc43)nc(Cl)nc21 [Example 17, (2R,3R,4S)-2-[2-chloro-6-[[(1R)-4-chloroindan-1-yl]amino]purin-9-yl]tetrahydrothiophene-3,4-diol] | < 20 | < 20 | < 20
2 | Cc1ccc2c(c1)CC[C@H]2Nc1nc(Cl)nc2c1ncn2[C@@H]1SC[C@@H](O)[C@H]1O [Example 27, (2R,3R,4S)-2-[2-chloro-6-[[(1R)-5-methylindan-1-yl]amino]purin-9-yl]tetrahydrothiophene-3,4-diol] | > 80 | > 80 | > 80
3 | O=C(O)c1cccc2c1CC[C@H]2Nc1nc(Cl)nc2c1ncn2[C@@H]1SC[C@@H](O)[C@H]1O [Example 32, (R)-1-((2-chloro-9-((2R,3R,4S)-3,4-dihydroxytetrahydrothiophen-2-yl)-9H-purin-6-yl)amino)-2,3-dihydro-1H-indene-4-carboxylic acid] | > 80 | > 80 | > 80
4 | COc1cccc2c1CC[C@H]2Nc1nc(Cl)nc2c1ncn2[C@@H]1SC[C@@H](O)[C@H]1O [Example 11, (2R,3R,4S)-2-[2-chloro-6-[[(1R)-4-methoxyindan-1-yl]amino]purin-9-yl]tetrahydrothiophene-3,4-diol] | 20 to 50 | 20 to 50 | 20 to 50
5 | O[C@@H]1[C@H](O)CS[C@H]1n1cnc2c(N[C@@H]3CCc4cc(F)ccc43)nc(Cl)nc21 [Example 16, (2R,3R,4S)-2-[2-chloro-6-[[(1R)-5-fluoroindan-1-yl]amino]purin-9-yl]tetrahydrothiophene-3,4-diol] | < 20 | < 20 | < 20
6 | O[C@@H]1[C@H](O)CS[C@H]1n1cnc2c(N[C@@H]3CCc4cccc(Br)c43)nc(Cl)nc21 [Example 26, (2R,3R,4S)-2-[2-chloro-6-[[(1R)-7-bromoindan-1-yl]amino]purin-9-yl]tetrahydrothiophene-3,4-diol] | 20 to 50 | 50 to 80 | 50 to 80
7 | CCC#Cc1nc(N[C@H]2CCc3ccccc32)c2ncn([C@@H]3SC[C@@H](O)[C@H]3O)c2n1 [Example 4, (2R,3R,4S)-2-[2-but-1-ynyl-6-[[(1S)-indan-1-yl]amino]purin-9-yl]tetrahydrothiophene-3,4-diol] | 50 to 80 | 50 to 80 | 50 to 80
8 | O[C@@H]1[C@H](O)CS[C@H]1n1cnc2c(N[C@@H]3CCc4ccccc4C3)nc(Cl)nc21 [Example 37, (2R,3R,4S)-2-(2-chloro-6-(((R)-1,2,3,4-tetrahydronaphthalen-2-yl)amino)-9H-purin-9-yl)tetrahydrothiophene-3,4-diol] | 50 to 80 | 50 to 80 | > 80
9 | O[C@@H]1[C@H](O)CS[C@H]1n1cnc2c(NC3CCc4ccccc4C3)nc(Cl)nc21 (stereo partly drawn) [Example 35, (2R,3R,4S)-2-(2-chloro-6-((1,2,3,4-tetrahydronaphthalen-2-yl)amino)-9H-purin-9-yl)tetrahydrothiophene-3,4-diol] | > 80 | > 80 | > 80
10 | O[C@@H]1[C@H](O)CS[C@H]1n1cnc2c(NC3CCc4ccccc43)nc(Cl)nc21 (stereo partly drawn) [Example 8, (2R,3R,4S)-2-[2-chloro-6-(indan-1-ylamino)purin-9-yl]tetrahydrothiophene-3,4-diol] | 20 to 50 | 20 to 50 | 20 to 50
11 | O[C@@H]1[C@H](O)CS[C@H]1n1cnc2c(N[C@H]3CCc4ccccc4C3)nc(Cl)nc21 [Example 36, (2R,3R,4S)-2-(2-chloro-6-(((S)-1,2,3,4-tetrahydronaphthalen-2-yl)amino)-9H-purin-9-yl)tetrahydrothiophene-3,4-diol] | > 80 | > 80 | > 80
